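96-well plates; 48 h exposure; 5 concentrations. Endpoints by linear interpolation between flanking doses. Not reached: highest tested concentration assigned. The concentration for 50% growth inhibition is given as GI50.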 Calls of active or inactive are those of the source. Cut-off read from the data, not from the text of the source: active = GI50 up to about 1.1 µM and inactive = higher.
How the values were obtained:
Test in all cases: growth of human tumour cells (NCI), 48 h
786-0 = system: 786-0
A549 = system: A549
ACHN = system: ACHN
CAKI-1 = system: CAKI-1
CCRF-CEM = system: CCRF-CEM
DLD-1 = system: DLD-1
DMS-273 = system: DMS-273
EKVX = system: EKVX
HCT-116 = system: HCT-116
HCT-15 = system: HCT-15
HL-60 = system: HL-60
HOP-92 = system: HOP-92
HT-29 = system: HT-29
IGROV-1 = system: IGROV-1
K562 = system: K562
KM-20L2 = system: KM-20L2
KM12 = system: KM12
LOX IMVI = system: LOX IMVI
LXFL 529 = system: LXFL 529
M14 = system: M14
M19-MEL = system: M19-MEL
MOLT-4 = system: MOLT-4
Malme-3M = system: Malme-3M
NCI-H226 = system: NCI-H226
NCI-H23 = system: NCI-H23
NCI-H522 = system: NCI-H522
OVCAR-3 = system: OVCAR-3
RPMI-8226 = system: RPMI-8226
RXF 631 = system: RXF 631
SF-268 = system: SF-268
SF-295 = system: SF-295
SF-539 = system: SF-539
SK-MEL-28 = system: SK-MEL-28
SK-MEL-2 = system: SK-MEL-2
SK-OV-3 = system: SK-OV-3
SN12C = system: SN12C
SNB-19 = system: SNB-19
SNB-75 = system: SNB-75
SNB-78 = system: SNB-78
SR = system: SR
SW-620 = system: SW-620
TK-10 = system: TK-10
U-251 = system: U-251
UACC-257 = system: UACC-257
UACC-62 = system: UACC-62
UO-31 = system: UO-31
XF498 = system: XF498
A498 = system: A498
COLO 205 = system: COLO 205
DMS-114 = system: DMS-114
HCC 2998 = system: HCC 2998
HOP-18 = system: HOP-18
HOP-62 = system: HOP-62
OVCAR-4 = system: OVCAR-4
OVCAR-5 = system: OVCAR-5
OVCAR-8 = system: OVCAR-8
SK-MEL-5 = system: SK-MEL-5

O=C(NCCc1ccccc1)C1C(=O)C(=O)N(CCc2ccccc2)C1=O (stereo not drawn)
GI50 (786-0): > 100 µM (inactive)
GI50 (A549): > 100 µM (inactive)
GI50 (ACHN): > 100 µM (inactive)
GI50 (CAKI-1): > 100 µM (inactive)
GI50 (CCRF-CEM): > 100 µM (inactive)
GI50 (DLD-1): > 100 µM (inactive)
GI50 (DMS-273): > 100 µM (inactive)
GI50 (EKVX): > 100 µM (inactive)
GI50 (HCT-116): > 100 µM (inactive)
GI50 (HCT-15): > 100 µM
GI50 (HL-60): > 100 µM (inactive)
GI50 (HOP-92): > 100 µM (inactive)
GI50 (HT-29): > 100 µM (inactive)
GI50 (IGROV-1): > 100 µM (inactive)
GI50 (K562): > 100 µM (inactive)
GI50 (KM-20L2): > 100 µM (inactive)
GI50 (KM12): > 100 µM (inactive)
GI50 (LOX IMVI): > 100 µM (inactive)
GI50 (LXFL 529): > 100 µM (inactive)
GI50 (M14): > 100 µM (inactive)
GI50 (M19-MEL): > 100 µM (inactive)
GI50 (MOLT-4): > 100 µM (inactive)
GI50 (Malme-3M): > 100 µM (inactive)
GI50 (NCI-H226): > 100 µM (inactive)
GI50 (NCI-H23): > 100 µM (inactive)
GI50 (NCI-H522): > 100 µM (inactive)
GI50 (OVCAR-3): > 100 µM (inactive)
GI50 (RPMI-8226): > 100 µM (inactive)
GI50 (RXF 631): > 100 µM (inactive)
GI50 (SF-268): > 100 µM (inactive)
GI50 (SF-295): > 100 µM (inactive)
GI50 (SF-539): > 100 µM (inactive)
GI50 (SK-MEL-28): > 100 µM (inactive)
GI50 (SK-MEL-2): > 100 µM (inactive)
GI50 (SK-OV-3): 48.4 µM (inactive)
GI50 (SN12C): > 100 µM (inactive)
GI50 (SNB-19): > 100 µM (inactive)
GI50 (SNB-75): > 100 µM (inactive)
GI50 (SNB-78): > 100 µM (inactive)
GI50 (SR): > 100 µM (inactive)
GI50 (SW-620): > 100 µM (inactive)
GI50 (TK-10): > 100 µM (inactive)
GI50 (U-251): > 100 µM (inactive)
GI50 (UACC-257): > 100 µM (inactive)
GI50 (UACC-62): > 100 µM (inactive)
GI50 (UO-31): > 100 µM (inactive)
GI50 (XF498): > 100 µM (inactive)

O=P(Nc1ccccc1)(Oc1ccccc1)N(CCCl)CCCl (stereo not drawn)
GI50 (A498): > 100 µM (inactive)
GI50 (A549): 94 µM (inactive)
GI50 (ACHN): > 100 µM (inactive)
GI50 (CAKI-1): > 100 µM (inactive)
GI50 (CCRF-CEM): 37.8 µM (inactive)
GI50 (COLO 205): > 100 µM (inactive)
GI50 (DLD-1): > 100 µM (inactive)
GI50 (DMS-114): 60.1 µM (inactive)
GI50 (DMS-273): > 100 µM (inactive)
GI50 (EKVX): > 100 µM (inactive)
GI50 (HCC 2998): > 100 µM (inactive)
GI50 (HCT-116): > 100 µM (inactive)
GI50 (HCT-15): > 100 µM
GI50 (HL-60): 14.8 µM (inactive)
GI50 (HOP-18): > 100 µM (inactive)
GI50 (HOP-62): > 100 µM (inactive)
GI50 (HOP-92): 26.4 µM (inactive)
GI50 (HT-29): > 100 µM (inactive)
GI50 (IGROV-1): > 100 µM (inactive)
GI50 (K562): > 100 µM (inactive)
GI50 (KM-20L2): > 100 µM (inactive)
GI50 (KM12): 65.8 µM (inactive)
GI50 (M14): 91.8 µM (inactive)
GI50 (M19-MEL): > 100 µM (inactive)
GI50 (MOLT-4): > 100 µM (inactive)
GI50 (Malme-3M): > 100 µM (inactive)
GI50 (NCI-H226): > 100 µM (inactive)
GI50 (NCI-H23): > 100 µM (inactive)
GI50 (NCI-H522): 14 µM (inactive)
GI50 (OVCAR-3): > 100 µM (inactive)
GI50 (OVCAR-4): > 100 µM (inactive)
GI50 (OVCAR-5): > 100 µM (inactive)
GI50 (OVCAR-8): 71.9 µM (inactive)
GI50 (RXF 631): > 100 µM (inactive)
GI50 (SF-268): > 100 µM (inactive)
GI50 (SF-295): 69.3 µM (inactive)
GI50 (SF-539): > 100 µM (inactive)
GI50 (SK-MEL-28): > 100 µM (inactive)
GI50 (SK-MEL-2): 36.5 µM (inactive)
GI50 (SK-MEL-5): 39.4 µM (inactive)
GI50 (SK-OV-3): 23.1 µM (inactive)
GI50 (SN12C): > 100 µM (inactive)
GI50 (SNB-75): > 100 µM (inactive)
GI50 (SNB-78): > 100 µM (inactive)
GI50 (SR): > 100 µM (inactive)
GI50 (SW-620): > 100 µM (inactive)
GI50 (TK-10): > 100 µM (inactive)
GI50 (U-251): > 100 µM (inactive)
GI50 (UACC-257): > 100 µM (inactive)
GI50 (UACC-62): 89.1 µM (inactive)
GI50 (UO-31): 12.4 µM (inactive)

Reference: ChEMBL document CHEMBL1201862, “PubChem BioAssay data set” (2004)
